In assay [1] the test system is soybean (Tanba-kuro, Chusei-hikari-kuro, Sachiyutaka). The assay is described as follows: Inosine sprayed on soil surface: root nodule formation and growth of soybean (Example 1). The format is in vivo. The note with it: 2 ppm and 20 ppm inosine solution, 250 ml sprayed on soil surface 7, 10 and 15 days after seeding, measured 20 days after seeding, all varieties Tanba-kuro, vs distilled water. From the text:
Various varieties of soybeans (black soybeans: Tanba-kuro and Chusei-hikari-kuro, white soybean: Sachiyutaka) were each seeded in 0.6 L of soil (marketed vermiculite, fertilizer was not added) contained in each of No. 4 pots (diameter: 12 cm). For each variety, 7 individuals showing good growth before development of primary leaf were selected per pot. Seven individuals were used for each of the following treatment groups.
2. 2 ppm Inosine solution group
3. 20 ppm Inosine solution group
4. 100 ppm Inosine solution group
Each solution in a volume of 250 ml was splayed on the soil surface in the pot, 7, 10 and 15 days after the seeding. The inosine concentrations in the soil given as a one-time application were 0.83 ppm for the 2 ppm solution group, 8.3 ppm for the 20 ppm solution group, and 41.7 ppm for the 100 ppm solution group, which were equivalent to 442 g/ha, 4,425 g/ha, and 22.1 kg/ha, respectively. The inosine solutions were prepared by diluting a 2% inosine solution (Ikuou, Shoko Agri Co., Ltd., containing 0.52% KOH as pH modifier in order to promote dissolution of inosine) with distilled water.
Twenty days after the seeding, the number of root nodules (FIG. 1) and the dry weight of aboveground parts (FIG. 2) were measured.

For assay [2], the system named is Soybean (Sachiyutaka). Nature of the assay: Inosine applied by irrigation into soybean-growing black soil (Example 2). The note with it: 34 days after seeding; for Dry weight of aboveground part / Dry weight of underground part: 2 ppm inosine, irrigation, relative value, distilled water group taken as 100. The format is in vivo. On the procedure:
Soybean (Sachiyutaka) was seeded in 1 kg of soil (marketed black soil, moisture content: 35%) contained in each of the pots. Calcium superphosphate and potassium sulfate were added as fertilizers in the amounts of 40 mg/pot, in terms of P2O5 and K2O, respectively. The treatment groups included the distilled water group and the 2 ppm inosine solution group. One individual showing good growth before development of a primary leaf was selected from each pot, and five individuals were used for each treatment group. Either the distilled water or the inosine solution in a volume of 250 ml was applied to the soil in the pot by irrigation, 10, 14 and 19 days after the seeding. The inosine concentration in the soil given as a one-time application was 0.5 ppm, which was equivalent to 325 g/ha, in the 2 ppm solution group. Thirty-four days after the seeding, the number of root nodules (FIG. 3), the dry weight of root nodules (FIG. 4), the dry weight of aboveground parts, and the dry weight of underground parts (Table 1) were measured. The dry weight of root nodules, the dry weight of aboveground parts, and the dry weight of underground parts were indicated with relative values based on the values of the distilled water group, which were taken as 100. The application of the 2 ppm inosine solution increased all of the number of root nodules, the dry weight of root nodules, the dry weight of aboveground parts and the dry weight of underground parts.

For assay [3], the system named is Soybean (Sachiyutaka). Nature of the assay: Inosine applied to soybean by foliar spray, soil inoculated with Bradyrhizobium japonicum (Example 3). Format: in vivo. The following applies: 32 days after seeding; for Dry weight of aboveground part / Dry weight of underground part: foliar spray, table prints Inosine (ppm) 2, text 10 ppm, relative value, distilled water group taken as 100. On the procedure: Soybean (Sachiyutaka) was seeded in 0.7 kg of soil (marketed black soil, moisture content: 35%) contained in each of pots. Calcium superphosphate and potassium sulfate were added as fertilizers in the amounts of 28 mg/pot, in terms of P2O5 and K2O, respectively. As root nodule bacterium, “Mame-Zo” (containing a soybean root nodule bacterium, Bradyrhizobium japonicum, Tokachi Federation of Agricultural Cooperative Associations, http://www.nokyoren.or.jp/material.html) was added to the soil at a root nodule bacterium concentration of 10^4 cfu/cm^3 of soil. The treatment groups included the distilled water group and the 10 ppm inosine solution group. One individual showing good growth before development of a primary leaf was selected from each pot, and five individuals were used for each treatment group. Either distilled water or the inosine solution in a volume of 5 ml was applied by foliar spray, 10, 14 and 19 days after the seeding. To the distilled water and the inosine solution, a spreading composition (Approach BI, Kao Corp., “Approach” is a registered trade name of Kao Corp.) was added at a concentration of 0.1 v/v %. The spray amount of inosine given as a one-time application was 10 g/ha in the 10 ppm inosine solution group. Thirty-two days after the seeding, the number of root nodules (FIG. 5), the dry weight of root nodules (FIG. 6), the dry weight of aboveground parts, and the dry weight of underground parts (Table 2) were measured. The dry weight of root nodules, the dry weight of aboveground parts, and the dry weight of underground parts were indicated with relative values based on the values of the distilled water group, which were taken as 100. The application of the 10 ppm inosine solution increased all of the number of root nodules, the dry weight of root nodules, the dry weight of aboveground parts and the dry weight of underground parts.

Assay [4] concerns Soybean (Sachiyutaka). Nature of the assay: Inosine applied by irrigation to soybean-growing vermiculite, low and high soil nutrient (Example 4). Format: in vivo. The note with it: 2 ppm and 20 ppm inosine solutions, irrigation 10, 17 and 25 days after seeding; 33 days after seeding; same soil fertilizer condition (low or high soil nutrient); vs distilled water groups. The protocol:
Soybean (Sachiyutaka) was transplanted to 1.4 L of soil (vermiculite, moisture content: 50%) contained in each of pots (diameter: 15 cm). The treatment groups included the distilled water groups (Groups 1 and 4) and the inosine application groups (Groups 2, 3, 5 and 6), in which 2 ppm and 20 ppm inosine solutions were applied (Ikuou [Shoko Agri Co., Ltd.] was diluted with distilled water and applied), as shown in Table 3. The distilled water groups and the inosine application groups both include a group in which calcium superphosphate and potassium sulfate were added as fertilizers in amounts of 40 mg/pot in terms of P2O5 and K2O, respectively, and a group in which an organic fertilizer (“Hanasaku Hiryo (1.5-9-4.5)”, Tosho Co., Ltd.) was added in an amount of 2 g/pot (N:P2O5:K2O=30:180:90 mg/pot). The root nodule bacterium (“Mame-Zo”, Tokachi Federation of Agricultural Cooperative Associations) was added at a concentration of 4×10^4 cfu/cm^3 of soil. One individual showing good growth before development of a primary leaf was selected from each pot, and five individuals were used for measurement of each treatment group. Either distilled water or each of the inosine solutions in a volume of 250 ml was applied by irrigation, 10, 17 and 25 days after the seeding. The inosine concentrations in the soil given as a one-time application were 0.36 ppm for the 2 ppm solution groups, and 3.6 ppm for the 20 ppm solution groups, which were equivalent to 282 g/ha and 2,825 g/ha, respectively. Under the low nutrient soil condition (Groups 1 to 3), etiolation of the leaves was observed and considered to be due to deficiency of trace components. Accordingly, a solution of the composition shown in Table 4 was applied in a volume of 100 ml/pot by irrigation, 20 days and 27 days after the transplantation of the soybean. Even in this case, the nutrient concentration was lower than that of the high soil nutrient groups (Groups 4 to 6). [table] Thirty-three days after the seeding, the number of root nodules (FIG. 7), the dry weight of root nodules (FIG. 8), the dry weight of aboveground parts (FIG. 9), and the dry weight of underground parts (FIG. 10) were measured. Under the same soil fertilizer condition, the applications of the 2 ppm and 20 ppm inosine solutions both increased all of the number of root nodules, the dry weight of root nodules, the dry weight of aboveground parts and the dry weight of underground parts, as compared with the distilled water groups (0 ppm groups).

The next assay deals with plant roots. The following applies: applied to soil or hydroponic water; leaf vegetables, fruit vegetables, root vegetables, flowers and fruit trees (Japanese Patent No. 2927269); cited from earlier work.
[5] abbreviates: 2 ppm inosine solution, irrigation 10, 14 and 19 days after seeding, vs distilled water group.
Setting [6] is: 10 ppm inosine solution, 5 ml foliar spray 10, 14 and 19 days after seeding, vs distilled water group.

`OC[C@H]1O[C@@H](n2cnc3c(O)ncnc32)[C@H](O)[C@@H]1O` [Inosine, inosine]: the “dry weight of aboveground parts” value was “clearly increased” in assay [1] and “increased” with Soybean (Sachiyutaka) [4]. The “number of root nodules” value is on record as “clearly increased” in assay [1], “increased” in the assay on Soybean (Sachiyutaka) [2] (setting [5]), “increased” in the assay with Soybean (Sachiyutaka) [3] (setting [6]) and “increased” in the assay on Soybean (Sachiyutaka) [4]. In addition, the “dry weight of root nodules” value with Soybean (Sachiyutaka) [2] (setting [5]), in the assay on Soybean (Sachiyutaka) [3] (setting [6]) and with Soybean (Sachiyutaka) [4] was “increased” in each case. The “Dry weight of aboveground part” value is on record as 105.1 in the assay with Soybean (Sachiyutaka) [2], “increased” with Soybean (Sachiyutaka) [2] (listed as inosine), 122.0 in the assay on Soybean (Sachiyutaka) [3] and “increased” in the assay with Soybean (Sachiyutaka) [3] (listed as inosine). Besides, the “Dry weight of underground part” value is on record as 107.2 in the assay on Soybean (Sachiyutaka) [2], “increased” with Soybean (Sachiyutaka) [2] (listed as inosine), 111.9 with Soybean (Sachiyutaka) [3] and “increased” in the assay with Soybean (Sachiyutaka) [3] (listed as inosine). Also, the “dry weight of underground parts” value in the assay on Soybean (Sachiyutaka) [4] was “increased”. Moreover, the “growth of plant roots” value in the assay on plant roots is “promote the growth of plant roots”.

The record behind these values is patent US20110130285A1, “COMPOSITION FOR PROMOTING ROOT NODULE FORMATION OF PLANTS AND A METHOD FOR PROMOTING ROOT NODULE FORMATION OF PLANTS” (priority 2009, published 2011).
